Test results as given in patent publication US11077110B2, “Compositions and methods for treating and preventing metabolic disorders” (TUFTS MEDICAL CENTER, priority 2016, dated 2021).

Key:
WT-ADSCs = experiment: differentiation towards brown-like adipocytes in the presence of BAT inducers; format: cell-based, mouse; conditions: WT-ADSCs with BAT inducers; LEE011 10 μM, PD 0.1 μM; vs vehicle
Description: (a, d) Representative images of Oil Red O staining of differentiated ADSCs from WT and K43M mice (a, 10×) or WT-ADSCs treated with CDK4/6 inhibitor LEE011 (10 μM) and PD (0.1 μM) (a, 10×) in the presence of BAT inducers. (b, e) Representative images of Oil Red O staining of differentiated ADSCs from WT and K43M mice (b, 40×) or WT-ADSCs treated with CDK4/6 inhibitor LEE011 10 μM and PD 0.1 μM (e, 40×) in the presence of BAT inducers. (c, f) Representative images of bright field images of differentiated ADSCs from iWAT of WT and K43M mice or WT-ADSCs treated with CDK4/6 inhibitor LEE011 (10 μM) and PD (0.1 μM) (f, 40×) in the presence of BAT inducers.
(a) Relative mRNA levels of BAT markers Ucp-1, Pgc-1α and Cidea in differentiated ADSCs in the presence of BAT inducers. […] (b) lysates from cells were analyzed by immunoblotting for expression of CDK6, UCP-1, PGC-1α, and RUNX1. […]
Cellular differentiation entails the coordination of cell cycle arrest and tissue-specific gene expression. […] Accumulation of lipid-containing cells was detected by Oil red O staining as described (Hansen, J. B., et al. J Biol Chem 274, 2386-2393, 1999) (FIG. 11 a-b) and the characteristic feature of multilocular beige cells were also visualized under light microscopy (FIG. 11c). […]

WT-ADSCs cells = experiment: anti-proliferation efficacy and cell cycle of CDK4/6 inhibitors against primary adipose derived stem cells; format: cell-based, mouse; conditions: WT-ADSCs treated 6 days, PD 0.1 μM or LEE 10 μM, vs DMSO or vehicle; for frequency of proliferating cells (S-G2-M) / frequency of quiescence cells (G1): flow cytometric cell cycle profile; for total cell numbers: initial plating 5×10^5 cells
Description: (a, d) representative flow cytometric cell cycle profiles of WT-ADSCs cells treated with either PD (0.1 μM) or LEE (10 μM) for 6 days. (b, e) histograms summarizing the cell cycle distribution of the cells in A and D. Data shown are mean±s.d. (n=6); *P<0.05 vs DMSO or V, t-test. (c, f) Histograms summarizing the total cell numbers in WT-ADSCs cells treated with DMSO or PD (0.1 μM) for 6 days (c), or WT-ADSCs cells treated with vehicle (0.5% methycellulose) or LEE for 6 days (F). Data shown are mean±s.d. (n=6); *P<0.05 vs DMSO or V, t-test. The initial plating cells were 5×10^5.
To accomplish this, the anti-proliferation efficacy of CDK4/6 inhibitors against primary adipose derived stem cells (ADSCs) from the stromal vascular fraction (SVF) of WT adipose tissue (WT-ADSCs) we assessed. WT-ADSCs were treated with two known commercial available CDK4/6 inhibitors PD0332991 (PD) and LEE011 (LEE), two clinically relevant small molecule inhibitors of CDK4 and CDK6 kinases (Rader, J., et al. Clin Cancer Res 19, 6173-6182, 2013); Fry, D. W., et al. Mol Cancer Ther 3, 1427-1438, 2004; Pikman, Y., et al. Clin Cancer Res 23, 1012-1024, 2017) for 6 days with commonly used relevant effective doses (Fry, D. W., et al. Mol Cancer Ther 3, 1427-1438, 2004; Pikman, Y., et al. Clin Cancer Res 23, 1012-1024, 2017).

| Compound | brown-like adipocyte differentiation (WT-ADSCs) | frequency of proliferating cells (S-G2-M) (WT-ADSCs cells) | frequency of quiescence cells (G1) (WT-ADSCs cells) | total cell numbers (WT-ADSCs cells) |
| --- | --- | --- | --- | --- |
| CN(C)C(=O)c1cc2cnc(Nc3ccc(N4CCNCC4)cn3)nc2n1C1CCCC1 [LEE011, Ribociclib] | can induce brown-like adipocytes in vitro | dramatic reduction | increased frequency | successfully reduced |
| CC(=O)c1c(C)c2cnc(Nc3ccc(N4CCNCC4)cn3)nc2n(C2CCCC2)c1=O [PD0332991, palbociclib] | can induce brown-like adipocytes in vitro | dramatic reduction | increased frequency | successfully reduced |
